Legend:
caspase 9 in D3 cells = assay: Caspase-Glo 9 activity after Aβ challenge; assay type: cell-based, human; conditions: Example 2/3; FIG. 16D, 22
Protocol: Cells were plated at a confluence of 10.000 cells per well in 96-wells microplate luminescence microtiter (ThermoFisher, Waltham, Mass., US). The day after, cells were treated with the peptides and/or drugs for the experimental times. After that, caspase-Glo 9 assay was performed, following the protocol provided from the manufacturer. Luminescence was measured using a FlexStation 3 Multi-Mode Microplate Reader (Molecular devices, Sunnyvalem Calif., US).

[1] = system: SH-SY5Y and D3 cell cultures; assay: Intracellular pH measurement (pHrodo); assay type: cell-based, human; conditions: MTZ 100 and 300 μM, AZT 30 and 100 μM; 3 and 12 hours; with and without peptide
Protocol: Cells were plated on 96-wells microplate fluorescence microtiter (ThermoFisher, Waltham, Mass., US). The day after, cells were treated with the different drugs and/or peptides. After this, intracellular pH measurement was performed by using the pHrodo red AM kit, following the indications provided by the manufacturer.

TgSwDI mice [2] = assay: Barnes Maze spatial memory testing; assay type: in vivo, mouse; conditions: for behavioral phenotypes (Barnes maze): given with diet; for distance traveled, probe trial / mistakes, probe trial: in the diet for 8 months, 15-20 mg/kg/day; for distance traveled, probe trial / mistakes, probe trial / distance traveled in trial 10 (last trial): tested at 15-16 months; for distance traveled in trial 10 (last trial): treated for 8 months
Text: The Barnes Maze was used to provide an index of spatial learning and memory. The task capitalizes on the motivation of mice to seek refuge from loud, open and brightly-lit spaces. Mice were trained across a series of trials to successfully navigate to a hidden escape chamber using information provided by distal spatial cues. The Barnes Maze consists of a relatively large (36″ in diameter), circular platform with a beige textured surface that is elevated 36″ from the floor (San Diego Instruments, San Diego USA). The platform has twenty 2″ diameter holes that are equally spaced around the periphery of the platform (1″ from the edge). A grey plastic escape box (˜10 cm×8.5 cm×4 cm) is located under only one of the holes, the location of which is constant for each subject but variable across subjects and counterbalanced across groups. The surface of the Barnes maze is brightly-lit (500-600 lux), illuminated by an overhead lamp (60-100 W) placed approximated 30″ above the center of the platform. Visible distal cues were placed around the room and remained constant throughout the testing period. An overhead video camera and specialized software (Noldus Ethovision 11.5) was used to track the locomotor trajectories of the mice. Mice were trained for six consecutive daily testing sessions (2 trials/day for 5 days, and probe test on day 6).
On each testing day, mice were brought to the testing room for a minimum of 30 mins prior to testing in order to acclimate to transport and testing room conditions. On the first day of testing, each mouse was gently removed from its home cage by the base of its tail and placed in the center of the platform and kept within an inverted 500 ml beaker for 1 min. A white noise generator (San Diego Instruments) was turned on (˜90-100 dB) when the mouse was placed onto the maze. After the 1-min period, the beaker was slowly moved (over the course of 1 min) to the target hole with the mouse freely moving but confined underneath. Care was taken not to catch the tail or paws of the mouse while moving the beaker. The mouse was then permitted, or was gently guided by the experimenter using the beaker, to enter the escape box and was given 2 min inside before being transported back to its home cage within the escape box. The white noise was turned off as soon as the mouse entered the escape box. The platform and start box were cleaned thoroughly with 30% ethanol and allowed to dry fully before each trial. To ensure that distal spatial cues rather than local intramaze cues were being used to help guide navigation to the escape box, the maze was rotated after each training trial and the escape box re-positioned to always be in the identical spatial location within the room.
After the initial beaker trial, each mouse was given 2 training trials per day. During training trials, mice were placed in the center of the platform within an plastic 6″l×6″w×8″h start box. The white noise generator was turned on and, after 10-15 s delay, the start box was lifted. The mouse was permitted a maximum of 3 min to find the designated hole and escape box. When a mouse entered the escape box the white noise was turned off and they were given approximately 1 additional min inside the box before being transferred back to the home cage. […] A 90-120 min inter-trial interval separated the two training trials on each daily session.
Twenty four hours after (Day 6) the fifth training session, a 3-min probe trial was given, conducted identically as the training trials but where the escape box had been removed. This probe was used to examine search behavior patterns and to help control for possible strategies that use local cues from the escape box.
Spatial learning and memory was inferred based on the latency, distance and number of errors (other holes visited) that was required for the mouse to successfully navigate to the escape box. […]

TgSwDI mice [3] = assay type: in vivo; conditions: given with diet
Protocol: The grip strength test was used to measure neuromuscular function and specifically assesses maximal muscle/grip force of the forelimbs (only) or both the fore and hind limbs combined. Motor performance was assessed by the horizontal grasping force applied by the rodent to a specialized stainless steel grid that is connected to a sensitive, electronic force sensor (Bioseb In Vivo Research Instruments). […] With the base of the tail held gently but firmly between thumb and forefinger, the mouse was pulled gently back away from the grid, ensuring that the torso remains horizontal, until the animal loses grip of the grid. For combined fore and hindlimb measurement, the procedure was identical to the forelimb-only procedure except that mouse was lowered to allow both fore and hind paws to attach to the grid before any measurements were taken. […]
To ensure maximal reliability, each measurement of interest (e.g., forelimb or combined) was repeated consecutively for each mouse to obtain 5-6 replicates. […] A truncated mean (mean of replicates after the smallest and largest readings were removed) was calculated for each subject. […]
Mice in each treatment group (WT, Tg, Tg+MTZ, Tg+ATZ) were counted before the beginning of the treatment, at month 2, and at sacrifice (month 16). […]

hCMEC/D3 cells (D3) = assay: Cell Death ELISAplus, Aβ-induced apoptosis; assay type: cell-based, human; conditions: Example 2/3; Aβ40-Q22 challenge; FIG. 17B, 21
Protocol: 20.000 cells per well were plated on 24-wells plates. The day after, cells were treated with peptides and/or drugs, following the experimental conditions.
20,000 cells per well were plated on 24-wells plates. The day after, cells were treated with peptides and/or drugs, following the experimental conditions.

SMILES	caspase 9 activation (caspase 9 in D3 cells)	intracellular pH values [1]	behavioral phenotypes (Barnes maze) (TgSwDI mice [2])	distance traveled, probe trial (TgSwDI mice [2])	mistakes, probe trial (TgSwDI mice [2])	distance traveled in trial 10 (last trial) (TgSwDI mice [2])	signs of toxicity, weight loss or death (TgSwDI mice [3])	apoptosis in response to Aβ (hCMEC/D3 cells (D3))
CC(=O)Nc1nnc(S(N)(=O)=O)s1 [ATZ, acetazolamide]	protective effect	did not show any significant changes	ameliorate behavioral phenotypes	not significantly higher than WT mice	not significantly higher than WT mice	not significantly higher than WT mice	without showing signs of toxicity, weight loss or increased death of the animals	prevented
CC(=O)/N=c1/sc(S(N)(=O)=O)nn1C [MTZ, methazolamide]	protective effect	did not show any significant changes	ameliorate behavioral phenotypes	not significantly higher than WT mice	not significantly higher than WT mice	not significantly higher than WT mice	without showing signs of toxicity, weight loss or increased death of the animals	prevented
